Assay results from patent US20070128217A1 (priority 2003, published 2007).

Key:
[1] = system: recombinant human anti-SARS-CoV antibody 03-018; format: binding; design: Binding of antibody 03-018 to linear peptides of the N protein of SARS-CoV Urbani / Binding of antibody 03-018 to looped/cyclic peptides of the N protein of SARS-CoV Urbani: unit not given here
[2] = system: antibodies in sera from SARS patients (sera 1a, 1b, 2, 6, 37, 62, London, SARS-yellow, SARS-green); format: binding, human; design: Binding of serum 6 to linear peptides of protein X1 of SARS-CoV Urbani / Binding of serum 37 to linear peptides of protein X1 of SARS-CoV Urbani / Binding of serum 6 to looped/cyclic peptide (PEPSCAN-ELISA) / Binding of serum 37 to looped/cyclic peptide (PEPSCAN-ELISA) / Binding of serum 37 to looped/cyclic peptides of protein X1 of SARS-CoV Urbani / Binding of serum 6 to linear peptides of protein X2 / Binding of serum 37 to linear peptides of protein X2 / Binding of serum 37 to looped/cyclic peptides of protein X2 of SARS-CoV Urbani / Binding of serum 6 to linear peptides of protein M of SARS-CoV Urbani / Binding of serum 37 to linear peptides of protein M of SARS-CoV Urbani / Binding of serum 6 to looped/cyclic peptides of protein M of SARS-CoV Urbani / Binding of serum 37 to looped/cyclic peptides of protein M of SARS-CoV Urbani / Binding of serum 6 to linear peptides of protein X3 of SARS-CoV Urbani / Binding of serum 37 to linear peptides of protein X3 of SARS-CoV Urbani / Binding of serum 37 to looped/cyclic peptides of protein X3 of SARS-CoV Urbani / Binding of serum 6 to linear peptides of protein X4 of SARS-CoV Urbani / Binding of serum 37 to linear peptides of protein X4 of SARS-CoV Urbani / Binding of serum 37 to looped/cyclic peptides of protein X4 of SARS-CoV Urbani / Binding of serum 6 to linear peptides of protein X5 of SARS-CoV Urbani / Binding of serum 37 to linear peptides of protein X5 of SARS-CoV Urbani / Binding of serum 37 to looped/cyclic peptides of protein X5 of SARS-CoV Urbani / Binding of serum 6 to linear peptides of protein N of SARS-CoV Urbani / Binding of serum 37 to linear peptides of protein N of SARS-CoV Urbani / Binding of serum 6 to linear peptide (PEPSCAN-ELISA) / Binding of serum 1a to looped/cyclic peptides of protein N of SARS-CoV Urbani / Binding of serum 1b to looped/cyclic peptides of protein N of SARS-CoV Urbani / Binding of serum 2 to looped/cyclic peptides of protein N of SARS-CoV Urbani / Binding of serum 6 to looped/cyclic peptides of protein N of SARS-CoV Urbani / Binding of serum 37 to looped/cyclic peptides of protein N of SARS-CoV Urbani / Binding of serum 62 to looped/cyclic peptides of protein N of SARS-CoV Urbani / Binding of serum London to looped/cyclic peptides of protein N of SARS-CoV Urbani / Binding of serum SARS-green to looped/cyclic peptides of protein N of SARS-CoV Urbani: unit not given here
[3] = system: control sera (pooled serum of ten healthy LUMC hospital workers; commercial negative donor pooled serum from the Dutch bloodbank); format: binding, human; design: Binding of Control serum LUMC to linear peptides / Binding of Control serum Blood-bank to linear peptides / Binding of Control serum LUMC to looped peptides / Binding of Control Serum Blood-Bank to Looped peptides / Binding of Control serum LUMC to linear peptides of the protein M of SARS-CoV Urbani / Binding of Control serum Blood-bank to linear peptides of the protein M of SARS-CoV Urbani / Binding of Control serum LUMC to looped peptides of the protein M of SARS-CoV Urbani / Binding of Control Serum Blood-Bank to Looped peptides of the protein M of SARS-CoV Urbani: unit not given here
[4] = system: rabbit serum obtained by immunizing a rabbit with the SARS-CoV strain Frankfurt 1; format: binding; design: Binding of a rabbit serum to linear peptides / Binding of a rabbit serum to looped peptides / Rabbit serum linear peptides / Rabbit serum looped peptides / Binding of a rabbit serum to linear peptides of protein N of SARS-CoV Urbani (Rabbit serum linear peptides) / Binding of a rabbit serum to looped/cyclic peptides of protein N of SARS-CoV Urbani (Rabbit serum looped peptides): unit not given here

| Sequence | Binding of antibody 03-018 to linear peptides of the N protein of SARS-CoV Urbani [1] | Binding of antibody 03-018 to looped/cyclic peptides of the N protein of SARS-CoV Urbani [1] | Binding of serum 1a to linear peptides of protein N of SARS-CoV Urbani [2] | Binding of serum 1a to looped/cyclic peptides of protein N of SARS-CoV Urbani [2] | Binding of serum 1b to linear peptides of protein N of SARS-CoV Urbani [2] | Binding of serum 1b to looped/cyclic peptides of protein N of SARS-CoV Urbani [2] | Binding of serum 2 to linear peptides of protein N of SARS-CoV Urbani [2] | Binding of serum 2 to looped/cyclic peptides of protein N of SARS-CoV Urbani [2] | Binding of serum 6 to linear peptides of protein N of SARS-CoV Urbani [2] | Binding of serum 6 to looped/cyclic peptides of protein N of SARS-CoV Urbani [2] | Binding of serum 37 to linear peptides of protein N of SARS-CoV Urbani [2] | Binding of serum 37 to looped/cyclic peptides of protein N of SARS-CoV Urbani [2] | Binding of serum 62 to linear peptides of protein N of SARS-CoV Urbani [2] | Binding of serum 62 to looped/cyclic peptides of protein N of SARS-CoV Urbani [2] | Binding of serum London to linear peptides of protein N of SARS-CoV Urbani [2] | Binding of serum London to looped/cyclic peptides of protein N of SARS-CoV Urbani [2] | Binding of serum SARS-green to linear peptides of protein N of SARS-CoV Urbani [2] | Binding of serum SARS-green to looped/cyclic peptides of protein N of SARS-CoV Urbani [2] | Binding of serum SARS-yellow to linear peptides of protein N of SARS-CoV Urbani [2] | Binding of serum SARS-yellow to looped/cyclic peptides of protein N of SARS-CoV Urbani [2] | also measured |
| --- | --- | --- | --- | --- | --- | --- | --- | --- | --- | --- | --- | --- | --- | --- | --- | --- | --- | --- | --- | --- | --- |
| PRWYFYYLGTGPEAS | 0.1 | 0.2 | 0.3 | 0.4 | 0.2 | 0.3 | 0.2 | 0.5 | 0.2 | 0.3 | 0.9 | 1.0 | 0.7 | 0.8 | 0.5 | 0.5 | 0.5 | 0.9 | 0.6 | 0.8 | Binding of Control Serum Blood-Bank to Looped peptides [3]: 0.7; Binding of Control serum Blood-bank to linear peptides [3]: 0.7; Binding of Control serum LUMC to linear peptides [3]: 0.6; Binding of Control serum LUMC to looped peptides [3]: 0.7; Binding of a rabbit serum to linear peptides of protein N of SARS-CoV Urbani (Rabbit serum linear peptides) [4]: 0.2; Binding of a rabbit serum to looped/cyclic peptides of protein N of SARS-CoV Urbani (Rabbit serum looped peptides) [4]: 0.6 |
| PSGTWLTYHGAIKLD | 0.1 | 0.2 | 0.3 | 0.2 | 0.2 | 0.1 | 0.2 | 0.2 | 0.2 | 0.1 | 1.0 | 0.4 | 0.8 | 0.3 | 0.7 | 0.3 | 0.6 | 0.1 | 0.7 | 0.1 | Control Serum Blood-Bank Looped peptides [3]: 0.4; Control serum Blood-bank linear peptides [3]: 0.7; Control serum LUMC linear peptides [3]: 0.6; Control serum LUMC looped peptides [3]: 0.4; Binding of a rabbit serum to linear peptides of protein N of SARS-CoV Urbani (Rabbit serum linear peptides) [4]: 0.1; Binding of a rabbit serum to looped/cyclic peptides of protein N of SARS-CoV Urbani (Rabbit serum looped peptides) [4]: 0.0 |
| PYGANKEGIVWVATE | 0.1 | 0.2 | 0.3 | 0.4 | 0.2 | 0.3 | 0.2 | 0.5 | 0.2 | 0.3 | 1.0 | 0.9 | 0.8 | 0.9 | 0.7 | 0.5 | 0.8 | 0.8 | 0.6 | 0.7 | Binding of Control Serum Blood-Bank to Looped peptides [3]: 0.6; Binding of Control serum Blood-bank to linear peptides [3]: 0.7; Binding of Control serum LUMC to linear peptides [3]: 0.7; Binding of Control serum LUMC to looped peptides [3]: 0.7; Binding of a rabbit serum to linear peptides of protein N of SARS-CoV Urbani (Rabbit serum linear peptides) [4]: 0.2; Binding of a rabbit serum to looped/cyclic peptides of protein N of SARS-CoV Urbani (Rabbit serum looped peptides) [4]: 0.2 |
